# Reference: patent publication US9796733B2, “Imidazo-pyrazine derivatives useful as soluble guanylate cyclase activators” (Merck Sharp & Dohme Corp., priority 2014, dated 2017)
# Biological target: T1, sGC α1/β1 heterodimer (Homo sapiens, UniProt Q02108+Q02153)
# T1 construct: expressed in transfected cells; host or cells: CHO-K1 (clone #7, CHO-K1/sGC)
# T1 sequence (Q02108 1-690): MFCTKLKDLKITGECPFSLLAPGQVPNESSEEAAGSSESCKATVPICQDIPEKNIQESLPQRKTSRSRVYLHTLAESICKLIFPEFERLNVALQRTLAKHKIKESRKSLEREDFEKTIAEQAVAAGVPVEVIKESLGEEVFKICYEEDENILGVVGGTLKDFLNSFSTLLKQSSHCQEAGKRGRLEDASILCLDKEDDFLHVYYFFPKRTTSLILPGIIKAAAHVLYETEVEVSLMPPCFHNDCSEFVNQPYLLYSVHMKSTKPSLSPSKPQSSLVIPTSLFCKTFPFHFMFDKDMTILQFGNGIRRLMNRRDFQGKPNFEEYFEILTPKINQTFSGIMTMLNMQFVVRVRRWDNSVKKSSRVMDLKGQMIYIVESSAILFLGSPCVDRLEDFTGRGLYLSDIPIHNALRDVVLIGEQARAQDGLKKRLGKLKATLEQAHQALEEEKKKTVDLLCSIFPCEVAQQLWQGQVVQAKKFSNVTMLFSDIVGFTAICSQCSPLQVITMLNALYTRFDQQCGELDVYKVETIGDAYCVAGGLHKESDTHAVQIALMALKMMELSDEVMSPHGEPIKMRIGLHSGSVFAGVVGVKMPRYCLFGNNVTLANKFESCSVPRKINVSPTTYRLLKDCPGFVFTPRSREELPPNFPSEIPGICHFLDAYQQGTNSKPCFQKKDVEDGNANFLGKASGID
# T1 sequence (Q02153 1-619): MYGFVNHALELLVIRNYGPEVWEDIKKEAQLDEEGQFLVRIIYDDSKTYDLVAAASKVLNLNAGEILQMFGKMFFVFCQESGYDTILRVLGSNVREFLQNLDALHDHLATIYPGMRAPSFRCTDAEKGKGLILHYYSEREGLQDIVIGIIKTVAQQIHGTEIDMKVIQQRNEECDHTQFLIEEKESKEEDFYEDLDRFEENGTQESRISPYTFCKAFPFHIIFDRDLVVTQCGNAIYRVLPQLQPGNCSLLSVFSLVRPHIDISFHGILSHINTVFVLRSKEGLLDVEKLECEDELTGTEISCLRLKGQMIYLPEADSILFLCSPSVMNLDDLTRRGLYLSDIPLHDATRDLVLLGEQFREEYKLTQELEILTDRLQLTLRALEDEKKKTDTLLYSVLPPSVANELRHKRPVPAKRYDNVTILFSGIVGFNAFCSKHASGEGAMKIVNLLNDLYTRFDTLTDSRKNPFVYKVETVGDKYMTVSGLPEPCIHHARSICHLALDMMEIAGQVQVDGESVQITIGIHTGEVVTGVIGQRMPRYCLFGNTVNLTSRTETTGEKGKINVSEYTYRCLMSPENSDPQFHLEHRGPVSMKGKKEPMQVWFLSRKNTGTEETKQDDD
# Test: Cell-based sGC functional assay (CASA assay): cGMP generation in CHO-K1/sGC cells, HTRF detection
# Details: for Emax: CHO-K1, percent activation relative to standard Compound A in CHO-K1/sGC cells, read-out: % Act.; for EC50: inflection point (IP) of cGMP generation in CHO-K1/sGC cells, 4P fit, activity expressed as percentage of Compound A
# Procedure, shortened: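 Stable CHO-K1/sGC cells in EBSS buffer with 5 mM MgCl2, 0.05% BSA and 0.5 mM IBMX were incubated with compound (2.5% DMSO final) ±1 μM DETA-NO for 1 hr at 37° C. cGMP was measured by HTRF. Activation is expressed as % of reference HDA Compound A maximum, with IP and max fold induction from a 4P fit.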
Compound,Emax,EC50
"CC(F)(F)c1ccc(C2(C)C(=O)Nc3nc(-c4cn5ccnc5c(CCC(F)(F)C(F)(F)F)n4)nc(N)c32)cn1 (single isomer, unassigned) [Example 379A, 4-amino-5-(6-(1,1-difluoroethyl)pyridin-3-yl)-5-methyl-2-(8-(3,3,4,4,4-pentafluorobutyl)imidazo[1,2-a]pyrazin-6-yl)-5H-pyrrolo[2,3-d]pyrimidin-6(7H)-one]",87%,152 nM
"CC(F)(F)c1ccc(C2(C)C(=O)Nc3nc(-c4cn5ccnc5c(CCCC(F)(F)F)n4)nc(N)c32)cn1 (single isomer, unassigned) [Example 380B, 4-amino-5-(6-(1,1-difluoroethyl)pyridin-3-yl)-5-methyl-2-(8-(4,4,4-trifluorobutyl)imidazo[1,2-a]pyrazin-6-yl)-5H-pyrrolo[2,3-d]pyrimidin-6(7H)-one]",181%,35 nM
"CC1(c2ccc(F)cc2)C(=O)Nc2nc(-c3cn4ccnc4c(CCc4ccccc4F)n3)nc(N)c21 (centres unmarked) [Example 3A, 4-amino-2-(8-(2-fluorophenethyl)imidazo[1,2-a]pyrazin-6-yl)-5-(4-fluorophenyl)-5-methyl-5H-pyrrolo[2,3-d]pyrimidin-6(7H)-one]",139%,19 nM
"CC1(c2ccc(F)cc2)C(=O)Nc2nc(-c3cn4ccnc4c(CCc4cccc(F)c4)n3)nc(N)c21 (centres unmarked) [Example 4A, 4-amino-2-(8-(3-fluorophenethyl)imidazo[1,2-a]pyrazin-6-yl)-5-(4-fluorophenyl)-5-methyl-5H-pyrrolo[2,3-d]pyrimidin-6(7H)-one]",123%,32 nM
CC1(c2ccc(F)cc2)C(=O)Nc2nc(-c3cn4ccnc4c(CCCc4ccccc4)n3)nc(N)c21 (centres unmarked) [Example 5A],109%,849 nM
"CC1(c2ccc(F)cc2)C(=O)Nc2nc(-c3cn4ccnc4c(-c4ccc(C5CC5)cc4)n3)nc(N)c21 (centres unmarked) [Example 6A, 4-amino-2-(8-(4-cyclopropylphenyl)imidazo[1,2-a]pyrazin-6-yl)-5-(4-fluorophenyl)-5-methyl-5H-pyrrolo[2,3-d]pyrimidin-6(7H)-one]",115%,559 nM
"COc1ccc(-c2nc(-c3nc(N)c4c(n3)NC(=O)C4(C)c3ccc(F)cc3)cn3ccnc23)cc1 (centres unmarked) [Example 7A, 4-amino-5-(4-fluorophenyl)-2-(8-(4-methoxyphenyl)imidazo[1,2-a]pyrazin-6-yl)-5-methyl-5H-pyrrolo[2,3-d]pyrimidin-6(7H)-one]",63%,583 nM
"CCC(CC)Cc1nc(-c2nc(N)c3c(n2)NC(=O)C3(C)c2ccc(Cl)cc2)cn2ccnc12 (centres unmarked) [Example 9A, 4-amino-5-(4-chlorophenyl)-2-(8-(2-ethylbutyl)imidazo[1,2-a]pyrazin-6-yl)-5-methyl-5H-pyrrolo[2,3-d]pyrimidin-6(7H)-one]",134%,60 nM
"CC1(c2ccc(F)cc2)C(=O)Nc2nc(-c3cn4ccnc4c(CCC4CCCCC4)n3)nc(N)c21 (centres unmarked) [Example 12A, 4-amino-2-(8-(2-cyclohexylethyl)imidazo[1,2-a]pyrazin-6-yl)-5-(4-fluorophenyl)-5-methyl-5H-pyrrolo[2,3-d]pyrimidin-6(7H)-one]",142%,53 nM
"CCC(CC)Cc1nc(-c2nc(N)c3c(n2)NC(=O)C3(C)c2ccc(F)cc2)cn2ccnc12 (centres unmarked) [Example 13A, 4-amino-2-(8-(2-ethylbutyl)imidazo[1,2-a]pyrazin-6-yl)-5-(4-fluorophenyl)-5-methyl-5H-pyrrolo[2,3-d]pyrimidin-6(7H)-one]",114%,42 nM
"CCCc1nc(-c2nc(N)c3c(n2)NC(=O)C3(C)c2ccc(F)cc2)cn2ccnc12 (centres unmarked) [Example 17A, 4-amino-5-(4-fluorophenyl)-5-methyl-2-(8-propylimidazo[1,2-a]pyrazin-6-yl)-5H-pyrrolo[2,3-d]pyrimidin-6(7H)-one]",124%,157 nM
"CCC(CC)Cc1nc(-c2nc(N)c3c(n2)NC(=O)C3(C)c2ccc(F)cn2)cn2ccnc12 (centres unmarked) [Example 18B, 4-amino-2-(8-(2-ethylbutyl)imidazo[1,2-a]pyrazin-6-yl)-5-(5-fluoropyridin-2-yl)-5-methyl-5H-pyrrolo[2,3-d]pyrimidin-6(7H)-one]",106%,145 nM
"CC(C)Cc1nc(-c2nc(N)c3c(n2)NC(=O)C3(C)c2ccc(F)cc2)cn2ccnc12 (centres unmarked) [Example 19A, 4-amino-5-(4-fluorophenyl)-2-(8-isobutylimidazo[1,2-a]pyrazin-6-yl)-5-methyl-5H-pyrrolo[2,3-d]pyrimidin-6(7H)-one]",113%,387 nM
"CC1(c2ccc(F)cc2)C(=O)Nc2nc(-c3cn4ccnc4c(C4CCC4)n3)nc(N)c21 (centres unmarked) [Example 21A, 4-amino-2-(8-cyclobutylimidazo[1,2-a]pyrazin-6-yl)-5-(4-fluorophenyl)-5-methyl-5H-pyrrolo[2,3-d]pyrimidin-6(7H)-one]",95%,197 nM
"CC(C)Cc1nc(-c2nc(N)c3c(n2)NC(=O)C3(c2ccc(Cl)cc2)C2CC2)cn2ccnc12 (centres unmarked) [Example 22B, 4-amino-5-(4-chlorophenyl)-5-cyclopropyl-2-(8-isobutylimidazo[1,2-a]pyrazin-6-yl)-5H-pyrrolo[2,3-d]pyrimidin-6(7H)-one]",91%,150 nM
"CC(C)Cc1nc(-c2nc(N)c3c(n2)NC(=O)C3(C)c2ccc(F)cn2)cn2ccnc12 (centres unmarked) [Example 23B, 4-amino-5-(5-fluoropyridin-2-yl)-2-(8-isobutylimidazo[1,2-a]pyrazin-6-yl)-5-methyl-5H-pyrrolo[2,3-d]pyrimidin-6(7H)-one]",96%,257 nM
"CCCc1nc(-c2nc(N)c3c(n2)NC(=O)C3(C)c2ccc(OC(F)(F)F)cc2)cn2ccnc12 (centres unmarked) [Example 24A, 4-amino-5-methyl-2-(8-propylimidazo[1,2-a]pyrazin-6-yl)-5-(4-(trifluoromethoxy)phenyl)-5H-pyrrolo[2,3-d]pyrimidin-6(7H)-one]",104%,410 nM
"CC(C)Cc1nc(-c2nc(N)c3c(n2)NC(=O)C3(C)c2ccc(OC(F)(F)F)cc2)cn2ccnc12 (centres unmarked) [Example 25A, 4-amino-2-(8-isobutylimidazo[1,2-a]pyrazin-6-yl)-5-methyl-5-(4-(trifluoromethoxy)phenyl)-5H-pyrrolo[2,3-d]pyrimidin-6(7H)-one]",87%,324 nM
"CC1(c2ccc(F)cn2)C(=O)Nc2nc(-c3cn4ccnc4c(C4CCC4)n3)nc(N)c21 (centres unmarked) [Example 27B, 4-amino-2-(8-cyclobutylimidazo[1,2-a]pyrazin-6-yl)-5-(5-fluoropyridin-2-yl)-5-methyl-5H-pyrrolo[2,3-d]pyrimidin-6(7H)-one]",85%,441 nM
"CC1(c2ccc(F)cc2)C(=O)Nc2nc(-c3cn4ccnc4c(C4CC4)n3)nc(N)c21 (centres unmarked) [Example 28A, 4-amino-2-(8-cyclopropylimidazo[1,2-a]pyrazin-6-yl)-5-(4-fluorophenyl)-5-methyl-5H-pyrrolo[2,3-d]pyrimidin-6(7H)-one]",82%,652 nM
"CC1(C(=O)NC2CC2)C(=O)Nc2nc(-c3cn4ccnc4c(Cc4ccccc4F)n3)nc(N)c21 (centres unmarked) [Example 35A, 4-amino-N-cyclopropyl-2-(8-(2-fluorobenzyl)imidazo[1,2-a]pyrazin-6-yl)-5-methyl-6-oxo-6,7-dihydro-5H-pyrrolo[2,3-d]pyrimidine-5-carboxamide]",129%,16 nM
"NC(=O)C1(C2CC2)C(=O)Nc2nc(-c3cn4ccnc4c(Cc4cccc(F)c4)n3)nc(N)c21 (centres unmarked) [Example 42B, 4-amino-5-cyclopropyl-2-(8-(3-fluorobenzyl)imidazo[1,2-a]pyrazin-6-yl)-6-oxo-6,7-dihydro-5H-pyrrolo[2,3-d]pyrimidine-5-carboxamide]",103%,32 nM
